From patent US20150272952A1, “Combination” (GLAXOSMITHKLINE LLC, priority 2012, published 2015)
Like-named read-outs stand apart in the source and are kept apart here.

Key:
UACC893 = test: Cell growth inhibition assay (Cell Titer Glo), UACC893; format: cell-based, Human; conditions: for IC50: Homo sapiens, UACC-893, 72 h, UACC893, PIK3CA H1047R, 3 days, single agent; for sensitivity of the line to single agent: UACC893, H1047R PIK3CA mutation
Method: (§1) Human tumor cell lines from breast, BT474, BT474-J4, JIMT-1, MDA-MB-361, SK-BR-3, HCC1419, UACC893 and HCC202 in RPMI 1640 containing 10% FBS media; SK-BR-3-W13 and BT474-J4 in RPMI 1640 containing 10% FBS and 1 μM Compound A (in this assay, Compound A, was used in the form of the ditosylate monohydrate salt) media were kept in a humidified incubator at 37° C. in 95% air and 5% CO2 JIMT-1 is a line derived from a patient clinically resistant to trastuzumab (Herceptin®). SK-BR-3-W13 is a single cell clone isolated by a cloning cylinder after a single treatment of SK-BR-3 cells with 0.5 μM Compound A. BT474-J4 is a single cell clone derived from BT474 cells that were selected to grow in Compound A to a concentration of 3 μM.
(§2) All cells were cultured without Compound A for a minimum of 72 hours prior to cell plating. Cells were assayed in a 96-well tissue culture plate (NUNC 136102) of RPMI containing 10% FBS at 2,000 cells/well. Approximately 24 hours after plating, cells were exposed to ten, two-fold or three-fold serial dilutions of Compound A or the combination of the two agents at a constant molar to molar ratio of 10:1 Compound A to Compound B (in this assay, Compound B refers to N-{(1S)-2-amino-1-[(3,4-difluorophenyl)methyl]ethyl}-5-chloro-4-(4-chloro-1-methyl-1H-pyrazol-5-yl)-2-furancarboxamide and was used as the free or unsalted compound) in RPMI media containing 10% FBS. Cells were incubated in the presence of compounds for 3 days. ATP levels were determined by adding Cell Titer Glo® (Promega) according to the manufacturer's protocol. Briefly, Cell Titer Glo® was added each plate, incubated for 20 minutes then luminescent signal was read on the SpectraMax L plate reader with a 0.5 sec integration time.
(§3) Inhibition of cell growth was estimated after treatment with Compound A or the combination of Compound A and Compound B for three days and comparing the signal to cells treated with vehicle (DMSO). Cell growth was calculated relative to vehicle (DMSO) treated control wells. Concentration of compound that inhibits 50% of control cell growth (IC50) was interpolated using nonlinear regression with the equation, y=(A+(B−A)/(1+(C/x)̂D)))), where A is the minimum response (ymin), B is the maximum response (ymax), C is the inflection point of the curve (EC50) and D is the Hill coefficient. […]
(§4) In general, a CI value <0.9, between 0.9 and 1.1, or >1.1 indicates synergy, additivity and antagonism, respectively. In general, the smaller the CI number, the greater is the strength of synergy. […]

HCC202 = test: Cell growth inhibition assay (Cell Titer Glo), HCC202; format: cell-based, Human; conditions: for sensitivity of the line to single agent: HCC202, E545K PIK3CA mutation; for IC50: Homo sapiens, 72 h, HCC202, PIK3CA E545K, 3 days, single agent
Method: as §1, §2, §3, §4

BT474-J4 = test: Cell growth inhibition assay (Cell Titer Glo), BT474-J4; format: cell-based, Human; conditions: for IC50: Homo sapiens, 72 h, BT474-J4 (resistant to Compound A and trastuzumab), PIK3CA K111N, 3 days, single agent
Method: as §1, §2
Inhibition of cell growth was estimated after treatment with Compound A or the combination of Compound A and Compound B for three days and comparing the signal to cells treated with vehicle (DMSO). Cell growth was calculated relative to vehicle (DMSO) treated control wells. […]

SK-BR-3 = test: Cell growth inhibition assay (Cell Titer Glo), SK-BR-3; format: cell-based; conditions: Homo sapiens
Method: as §1, §2, §3, §4

HCC1419 = test: Cell growth inhibition assay (Cell Titer Glo), HCC1419; format: cell-based; conditions: Homo sapiens
Method: as §1, §2, §3, §4

MDA-MB-361 = test: Cell growth inhibition assay (Cell Titer Glo), MDA-MB-361; format: cell-based, Human; conditions: for IC50: Homo sapiens, 72 h, MDA-MB-361, PIK3CA E545K, 3 days, single agent; for sensitivity of the line to single agent: MDA-MB-361, E545K PIK3CA mutation
Method: as §1, §2, §3, §4

BT474 = test: Cell growth inhibition assay (Cell Titer Glo), BT474; format: cell-based; conditions: Homo sapiens
Method: as §1, §2, §3, §4

KPL4 = test: Cell growth inhibition assay (Cell Titer Glo), KPL4; format: cell-based, Human; conditions: for IC50: Homo sapiens, 72 h, KPL4, PIK3CA H1047R, 3 days, single agent; for sensitivity of the line to single agent: KPL-4, H1047R PIK3CA mutation
JIMT1 = test: Cell growth inhibition assay (Cell Titer Glo), JIMT1; format: cell-based; conditions: Homo sapiens
Method: as §1, §2, §3, §4

SK-BR3-W13 = test: Cell growth inhibition assay (Cell Titer Glo), SK-BR3-W13; format: cell-based; conditions: Homo sapiens
Method: as §1, §2, §3, §4

[1] = 72 h, SK-BR-3, PIK3CA WT, 3 days, single agent, read-out: Single agent (IC50, μm)
[2] = SK-BR-3, single agent, bound stated, read-out: IC50
[3] = 72 h, HCC1419, PIK3CA WT, 3 days, single agent, read-out: Single agent (IC50, μm)
[4] = HCC1419, single agent, bound stated, read-out: IC50
[5] = BT-474, 72 h, BT474, PIK3CA K111N, 3 days, single agent, read-out: Single agent (IC50, μm)
[6] = BT-474, BT474, single agent, bound stated, read-out: IC50
[7] = JIMT-1, 72 h, JIMT1 (resistant to Compound A and trastuzumab), PIK3CA C420R, 3 days, single agent, read-out: Single agent (IC50, μm)
[8] = JIMT-1, JIMT1, single agent, bound stated, read-out: IC50
[9] = 72 h, SK-BR3-W13 (resistant to Compound A and trastuzumab), 3 days, single agent, read-out: Single agent (IC50, μm)
[10] = SK-BR-3-W13, single agent, bound stated, read-out: IC50

Structure (SMILES) | IC50 (UACC893) | sensitivity of the line to single agent (UACC893) | sensitivity of the line to single agent (HCC202) | IC50 (HCC202) | IC50 (BT474-J4) | IC50 (SK-BR-3; [1]) | IC50 (SK-BR-3; [2]) | IC50 (HCC1419; [3]) | IC50 (HCC1419; [4]) | IC50 (MDA-MB-361) | sensitivity of the line to single agent (MDA-MB-361) | IC50 (BT474; [5]) | IC50 (BT474; [6]) | IC50 (KPL4) | sensitivity of the line to single agent (KPL4) | IC50 (JIMT1; [7]) | IC50 (JIMT1; [8]) | IC50 (SK-BR3-W13; [9]) | IC50 (SK-BR3-W13; [10]) | sensitivity of the line to cell growth inhibition (BT474-J4; BT474-J4, single agent)
CS(=O)(=O)CCNCc1ccc(-c2ccc3ncnc(Nc4ccc(OCc5cccc(F)c5)c(Cl)c4)c3c2)o1 [Compound A, N-{3-Chloro-4-[(3-fluorobenzyl)oxy]phenyl}-6-[5-({[2-(methanesulphonyl)ethyl]amino}methyl)-2-furyl]-4-quinazolinamine, reference compound] | 492 ± 498 nM | sensitive | less sensitive | 2408 ± 22 nM | 5180 ± 2200 nM | 196 ± 70 nM | < 200 nM | 84 ± 34 nM | < 200 nM | > 10000 nM | less sensitive | 171 ± 34 nM | < 200 nM | 430 ± 159 nM | sensitive | 7780 ± 1270 nM | > 5000 nM | 5600 ± 1050 nM | > 5000 nM | –
Cn1ncc(Cl)c1-c1cc(C(=O)N[C@H](CN)Cc2ccc(F)c(F)c2)oc1Cl [Compound B, N-{(1S)-2-amino-1-[(3,4-difluorophenyl)methyl]ethyl}-5-chloro-4-(4-chloro-1-methyl-1H-pyrazol-5-yl)-2-furancarboxamide] | 30 ± 27 nM | sensitive | less sensitive | 919 ± 356 nM | 142 ± 47 nM | > 1000 nM | > 500 nM | 573 ± 154 nM | > 500 nM | 151 ± 22 nM | less sensitive | > 1000 nM | > 500 nM | 19 ± 4 nM | sensitive | > 1000 nM | > 1000 nM | > 1000 nM | > 1000 nM | sensitive
